Source: patent US20250114335A1, “METHODS AND COMPOSITIONS FOR THE TREATMENT OF EPILEPSY” (ARIZONA BOARD OF REGENTS ON BEHALF OF THE UNIVERSITY OF …, priority 2022, published 2025)
Several values for one entry are separate records, joined by “and”; a condition that tells them apart may be missing. Equal entries are not always repeated.

System: B6-D/D (Scn8a-N1768D) juvenile mice
Test: Survival and seizure frequency, B6-D/D juvenile mice
Assay type: in vivo, mouse
Description: Mouse strains: The C57BL/6J-N1768D congenic mouse (B6-D/+) was used for phenotyping, RNAseq, and BBB studies. In addition, a hybrid strain that was produced by backcross breeding to transfer the Scn8a-N1768D allele from the B6 to the C3H/HeJ strain background was used to further assess the effect of CND on survival and seizure frequency. After constructing an F1 by crossing male B6-D/+ heterozygotes to female C3H/HeJ, five rounds of backcrossing (N6) produced a […] and 98.5% C3H/HeJ-N1768D line (C3H-D/+). Sister-brother mating maintained the 98.5% C3H background. […] C3H-D/D mice have a delayed seizure onset (˜40-45 days) and an extended survival (65-70 days) with intermittent bouts of TCs (FIG. 1A).
Phenotyping: Female and male mice on both the B6 and C3H backgrounds were housed in sex-specific groups of 3-4 per cage in a pathogen-free mouse facility with a 14 h light/10 h dark cycle (lights turned on at 5 am). A 24/7 video monitoring system was utilized to collect seizure data, with infrared illumination to monitor behavior during the dark period. Seizures were counted as individual TCs. Adult mice were followed from the age of 6 weeks, a period of time well before seizure onset, in order to identify the day of seizure onset. A seizure bout was defined as a cluster of seizures on consecutive days, and a gap as a seizure-free period of 3 days or more.
Preparation of CND suspension for injections and oral dosing: Juvenile B6-D/D and adult B6-D/+ mice were given subcutaneous (s.c.) injections with either CND (2-4 mg/kg/day; doses that fall within the FDA-approved range for CND in both adults and children) or vehicle (VEH) (Sigma-Aldrich) (FIG. 1B). Oral dosing of adults was performed by thoroughly mixing 160 μl of suspension containing 1.28 mg of CND or VEH with 5 g of pure (organic) peanut butter in a petri dish. Mice were given 1 g pellet per mouse each day. Pellets were weighed each day to record the amount consumed, and 24/7 video was used to verify that each mouse was consuming the pellet. An average of 0.79 g (±0.36 g) was consumed by an adult mouse (˜20-25 g), corresponding to 9.1±4.2 mg/kg/day. No correlations were found for the amount of CND consumed and lifetime survival or number of TCs.
Survival and seizure frequency studies: B6-D/D mice were injected with CND (n=10) or VEH (n=10) at 15 days of age (P15) and followed to monitor TCs by 24/7 video recording until death (FIG. 1B). A separate set of 10 B6-D/D mice was administered a daily s.c. injection of 25 mg/kg/day phenytoin (PHT) suspension or VEH (US Pharmacopeia, Sigma-Aldrich). Oral administration of CND or VEH was initiated at the time of seizure onset (range P75-P85) for adult B6-D/+ females (N=10) and males (N=10) (FIG. 1B). Mice were monitored for seizures by 24/7 video recording until the time of death.

O=C1NC(=O)C(c2ccccc2)(c2ccccc2)N1 [PHT, phenytoin]
survival of juveniles (in words) (B6-D/D Juveniles): minor increase in survival that did not reach statistical significance | #TCs (B6-D/D juveniles, Treated): 55.9 TCs | #TCs/day (Life) (B6-D/D juveniles, Treated): 1.9 TCs/day | #TCs/day (PostTC) (B6-D/D juveniles, Treated): 10.2±7.1 TCs/day and 10.2 TCs/day | #gaps (B6-D/D juveniles, Treated): 1.2 | Age at Onset (B6-D/D juveniles, Treated): 22.2 | Days with TCs (B6-D/D juveniles, Treated): 6.8 days | gap days (B6-D/D juveniles, Treated): 5.2 days | mean gap length (B6-D/D juveniles, Treated): 3.5 | Age at Death (B6-D/D juveniles, Treated, daily s.c. injection): 30.1 ± 5.1 days and 30.1 days
